Assay results: US20070117770A1, “Human ribosomal DNA (rDNA) and ribosomal RNA (rRNA) nucleic acids and uses thereof” (Cylene Pharmaceuticals, Inc., priority 2005, published 2007)

Experiments:
Experiment in all cases: Protein kinase inhibition assay
Abl(T315I)(h) = Abl(T315I)(h) (Homo sapiens, UniProt P00519, T315I); type: biochemical; conditions: read-out: percent residual activity of Abl(T315I)(h)
Description: (§1) Certain compounds were tested for activity in protein kinase inhibition assays. All substrates were dissolved and diluted to working stocks in de-ionized water, apart from histone H1 (10× working stock in 20 mM MOPS pH 7.0), PDKtide (10× working stock in 50 mM Tris pH 7.0) ATF2 (which is typically stored at a 20× working stock in 50 mM Tris pH 7.5, 150 mM NaCl, 0.1 mM EGTA, 0.03% Brij-35, 50% glycerol, 1 mM benzamidine, 0.2 mM PMSF and 0.1% R-mercaptoethanol), KKLNRTLSFAEPG (SEQ ID NO:203) and RRRLSFAEPG (SEQ ID NO:204) (50 mM HEPES pH 7.4) and GGEEEEYFELVKKKK (SEQ ID NO:205) (20 mM MOPS pH 7.0). All kinases were pre-diluted to a 10× working concentration prior to addition into the assay. The composition of the dilution buffer for each kinase is detailed below.
(§2) In a final reaction volume of 25 μl, Abl (T3151) (h) (5-10 mU) is incubated with 8 mM MOPS pH 7.0, 0.2 mM EDTA, 50 μM EAIYAAPFAKKK (SEQ ID NO:206), 10 mM MgAcetate and [gamma-33P-ATP] (specific activity approx. 500 cpm/pmol, concentration as required). The reaction is initiated by the addition of the MgATP mix. After incubation for 40 minutes at room temperature, the reaction is stopped by the addition of 5 μl of a 3% phosphoric acid solution. 10 μl of the reaction is then spotted onto a P30 filtermat and washed three times for 5 minutes in 75 mM phosphoric acid and once in methanol prior to drying and scintillation counting.

CaMKIIβ(h) = CaMKIIβ(h) (Homo sapiens, UniProt Q13554); type: biochemical; conditions: read-out: percent residual activity of CaMKIIβ(h)
In short: (§3)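 First, substrates are dissolved and diluted to working stocks, mostly in de-ionized water; ATF2 is held as a 20× stock in 50 mM Tris pH 7.5, 150 mM NaCl, 0.1 mM EGTA, 0.03% Brij-35, 50% glycerol. Then each kinase is brought to a 10× working concentration in a kinase-specific diluent and added.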

DAPK1(h) = DAPK1(h) (Homo sapiens, UniProt P53355); type: biochemical; conditions: read-out: percent residual activity of DAPK1(h)
In short: as §3

LOK(h) = LOK(h) (Homo sapiens, UniProt O94804); type: biochemical; conditions: read-out: percent residual activity of LOK(h)
In short: as §3

MARK1(h) = MARK1(h) (Homo sapiens, UniProt Q9P0L2); type: biochemical; conditions: read-out: percent residual activity of MARK1(h)
In short: as §3

MLK1(h) = MLK1(h) (Homo sapiens, UniProt P80192); type: biochemical; conditions: read-out: percent residual activity of MLK1(h)
In short: as §3

MRCKα(h) = MRCKα(h) (Homo sapiens, UniProt Q5VT25); type: biochemical; conditions: read-out: percent residual activity of MRCKα(h)
In short: as §3

PKG1α(h) = PKG1α(h) (Homo sapiens, UniProt Q13976); type: biochemical; conditions: read-out: percent residual activity of PKG1α(h)
In short: as §3

PhKγ2(h) = PhKγ2(h) (Homo sapiens, UniProt P15735); type: biochemical; conditions: read-out: percent residual activity of PhKγ2(h)
In short: as §3

Pim-2(h) = Pim-2(h) (Homo sapiens, UniProt Q9P1W9); type: biochemical; conditions: read-out: percent residual activity of Pim-2(h)
In short: as §3

STK33(h) = STK33(h) (Homo sapiens, UniProt Q9BYT3); type: biochemical; conditions: read-out: percent residual activity of STK33(h)
In short: as §3

TSSK1(h) = TSSK1(h) (Homo sapiens, UniProt Q9BXA7); type: biochemical; conditions: read-out: percent residual activity of TSSK1(h)
In short: as §3

JNK3(h) = JNK3(h) (Homo sapiens, UniProt P53779); type: biochemical; conditions: read-out: percent residual activity of JNK3(h)
Description: as §1
as §2, with “JNK3” for “Abl (T3151)”, “50” for “8”, “Tris” for “MOPS”, “7.5, 0.1” for “7.0, 0.2”, “EGTA, 0.1% R-mercaptoethanol, 250” for “EDTA, 50”, “peptide,” for “EAIYAAPFAKKK (SEQ ID NO:206),”

Lyn(h) = Lyn(h) (Homo sapiens, UniProt P07948); type: biochemical; conditions: read-out: percent residual activity of Lyn(h)
Description: as §1
In a final reaction volume of 25 μl, Lyn (h) (5-10 mU) is incubated with 50 mM Tris pH 7.5, 0.1 mM EGTA, 0.1 mM Na3VO4, 0.1% R-mercaptoethanol, 0.1 mg/ml poly(Glu, Tyr) 4:1, 10 mM MgAcetate and [gamma-33P-ATP] (specific activity approx. 500 cpm/pmol, concentration as required). The reaction is initiated by the addition of the MgATP mix. After incubation for 40 minutes at room temperature, the reaction is stopped by the addition of 5 μl of a 3% phosphoric acid solution. […]

p70S6K(h) = type: biochemical, human; conditions: 2.5 μM
Description: as §1
as §2, with “μl, p70S6K” for “μl, Abl (T3151)”, “EDTA, 100” for “EDTA, 50”, “μM KKRNRTLTV” for “μM EAIYAAPFAKKK”, “ID NO:212),” for “ID NO:206),”

Sequence of LOK(h) (O94804 whole entry): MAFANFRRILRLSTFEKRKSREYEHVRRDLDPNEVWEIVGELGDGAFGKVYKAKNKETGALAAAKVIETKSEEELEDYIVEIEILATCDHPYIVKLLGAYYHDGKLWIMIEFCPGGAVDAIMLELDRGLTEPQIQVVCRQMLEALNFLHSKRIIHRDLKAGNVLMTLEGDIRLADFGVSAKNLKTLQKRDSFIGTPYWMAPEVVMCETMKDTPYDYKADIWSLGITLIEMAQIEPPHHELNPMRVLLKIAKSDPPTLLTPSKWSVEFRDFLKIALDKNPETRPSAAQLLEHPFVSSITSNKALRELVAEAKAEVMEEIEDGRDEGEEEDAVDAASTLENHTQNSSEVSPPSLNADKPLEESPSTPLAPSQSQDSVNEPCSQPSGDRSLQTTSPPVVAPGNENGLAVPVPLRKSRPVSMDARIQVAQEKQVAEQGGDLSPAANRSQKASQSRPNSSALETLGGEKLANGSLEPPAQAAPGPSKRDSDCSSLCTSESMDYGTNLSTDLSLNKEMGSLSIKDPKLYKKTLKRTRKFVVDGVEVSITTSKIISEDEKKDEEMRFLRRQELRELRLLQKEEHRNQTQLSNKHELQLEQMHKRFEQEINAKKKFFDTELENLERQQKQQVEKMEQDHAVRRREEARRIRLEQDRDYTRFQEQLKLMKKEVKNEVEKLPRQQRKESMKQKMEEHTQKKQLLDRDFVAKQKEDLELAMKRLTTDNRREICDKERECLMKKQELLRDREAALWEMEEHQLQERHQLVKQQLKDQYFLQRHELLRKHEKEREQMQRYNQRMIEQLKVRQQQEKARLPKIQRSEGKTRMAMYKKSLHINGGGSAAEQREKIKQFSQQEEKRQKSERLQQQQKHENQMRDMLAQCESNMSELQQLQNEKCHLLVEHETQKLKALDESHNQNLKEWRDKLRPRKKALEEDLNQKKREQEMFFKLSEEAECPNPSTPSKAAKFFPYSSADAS
Sequence of TSSK1(h) (Q9BXA7 whole entry): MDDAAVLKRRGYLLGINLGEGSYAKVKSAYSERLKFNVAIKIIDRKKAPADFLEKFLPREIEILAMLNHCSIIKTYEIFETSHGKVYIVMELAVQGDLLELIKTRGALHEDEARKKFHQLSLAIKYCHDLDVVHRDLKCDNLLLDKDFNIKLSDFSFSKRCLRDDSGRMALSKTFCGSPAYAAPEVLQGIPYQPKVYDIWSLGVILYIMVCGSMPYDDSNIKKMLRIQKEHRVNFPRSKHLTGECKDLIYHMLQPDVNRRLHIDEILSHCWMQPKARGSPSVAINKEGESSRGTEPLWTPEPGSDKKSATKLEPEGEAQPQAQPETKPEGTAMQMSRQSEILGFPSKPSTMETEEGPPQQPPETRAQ
Sequence of Lyn(h) (P07948 whole entry): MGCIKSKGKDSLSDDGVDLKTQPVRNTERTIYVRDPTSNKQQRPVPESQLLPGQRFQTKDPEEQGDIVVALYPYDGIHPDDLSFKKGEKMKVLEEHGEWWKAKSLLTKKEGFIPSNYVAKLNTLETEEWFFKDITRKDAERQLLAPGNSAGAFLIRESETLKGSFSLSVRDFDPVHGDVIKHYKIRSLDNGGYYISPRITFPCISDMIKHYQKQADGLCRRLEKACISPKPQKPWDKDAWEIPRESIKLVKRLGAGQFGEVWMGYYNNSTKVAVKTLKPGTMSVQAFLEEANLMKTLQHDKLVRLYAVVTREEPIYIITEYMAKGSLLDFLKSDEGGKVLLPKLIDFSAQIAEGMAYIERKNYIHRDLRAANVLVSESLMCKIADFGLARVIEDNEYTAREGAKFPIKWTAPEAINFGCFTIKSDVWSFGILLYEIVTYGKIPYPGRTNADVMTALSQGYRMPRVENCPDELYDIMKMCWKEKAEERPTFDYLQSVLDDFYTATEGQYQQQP
Sequence of STK33(h) (Q9BYT3 whole entry): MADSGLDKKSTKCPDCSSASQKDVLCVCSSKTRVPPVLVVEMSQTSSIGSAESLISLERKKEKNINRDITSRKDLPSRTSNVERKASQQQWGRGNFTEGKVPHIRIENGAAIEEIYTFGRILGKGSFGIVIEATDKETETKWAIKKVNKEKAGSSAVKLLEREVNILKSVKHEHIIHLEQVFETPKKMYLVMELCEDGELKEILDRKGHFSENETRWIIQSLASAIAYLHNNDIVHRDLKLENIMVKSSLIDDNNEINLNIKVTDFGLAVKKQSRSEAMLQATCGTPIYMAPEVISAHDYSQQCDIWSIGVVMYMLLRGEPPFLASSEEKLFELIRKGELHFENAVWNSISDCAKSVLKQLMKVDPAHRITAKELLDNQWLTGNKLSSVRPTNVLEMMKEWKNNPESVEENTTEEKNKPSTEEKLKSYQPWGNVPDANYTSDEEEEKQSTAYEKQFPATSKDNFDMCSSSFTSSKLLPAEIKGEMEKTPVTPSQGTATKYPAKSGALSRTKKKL
Sequence of Pim-2(h) (Q9P1W9 whole entry): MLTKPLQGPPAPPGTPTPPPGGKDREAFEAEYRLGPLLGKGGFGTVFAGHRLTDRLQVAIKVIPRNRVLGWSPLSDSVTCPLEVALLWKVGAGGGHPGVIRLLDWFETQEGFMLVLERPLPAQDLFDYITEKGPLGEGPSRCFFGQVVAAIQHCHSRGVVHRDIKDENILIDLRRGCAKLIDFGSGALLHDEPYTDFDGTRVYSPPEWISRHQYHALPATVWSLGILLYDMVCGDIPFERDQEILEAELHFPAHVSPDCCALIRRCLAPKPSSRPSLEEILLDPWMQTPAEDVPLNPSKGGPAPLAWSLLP
Sequence of DAPK1(h) (P53355 whole entry): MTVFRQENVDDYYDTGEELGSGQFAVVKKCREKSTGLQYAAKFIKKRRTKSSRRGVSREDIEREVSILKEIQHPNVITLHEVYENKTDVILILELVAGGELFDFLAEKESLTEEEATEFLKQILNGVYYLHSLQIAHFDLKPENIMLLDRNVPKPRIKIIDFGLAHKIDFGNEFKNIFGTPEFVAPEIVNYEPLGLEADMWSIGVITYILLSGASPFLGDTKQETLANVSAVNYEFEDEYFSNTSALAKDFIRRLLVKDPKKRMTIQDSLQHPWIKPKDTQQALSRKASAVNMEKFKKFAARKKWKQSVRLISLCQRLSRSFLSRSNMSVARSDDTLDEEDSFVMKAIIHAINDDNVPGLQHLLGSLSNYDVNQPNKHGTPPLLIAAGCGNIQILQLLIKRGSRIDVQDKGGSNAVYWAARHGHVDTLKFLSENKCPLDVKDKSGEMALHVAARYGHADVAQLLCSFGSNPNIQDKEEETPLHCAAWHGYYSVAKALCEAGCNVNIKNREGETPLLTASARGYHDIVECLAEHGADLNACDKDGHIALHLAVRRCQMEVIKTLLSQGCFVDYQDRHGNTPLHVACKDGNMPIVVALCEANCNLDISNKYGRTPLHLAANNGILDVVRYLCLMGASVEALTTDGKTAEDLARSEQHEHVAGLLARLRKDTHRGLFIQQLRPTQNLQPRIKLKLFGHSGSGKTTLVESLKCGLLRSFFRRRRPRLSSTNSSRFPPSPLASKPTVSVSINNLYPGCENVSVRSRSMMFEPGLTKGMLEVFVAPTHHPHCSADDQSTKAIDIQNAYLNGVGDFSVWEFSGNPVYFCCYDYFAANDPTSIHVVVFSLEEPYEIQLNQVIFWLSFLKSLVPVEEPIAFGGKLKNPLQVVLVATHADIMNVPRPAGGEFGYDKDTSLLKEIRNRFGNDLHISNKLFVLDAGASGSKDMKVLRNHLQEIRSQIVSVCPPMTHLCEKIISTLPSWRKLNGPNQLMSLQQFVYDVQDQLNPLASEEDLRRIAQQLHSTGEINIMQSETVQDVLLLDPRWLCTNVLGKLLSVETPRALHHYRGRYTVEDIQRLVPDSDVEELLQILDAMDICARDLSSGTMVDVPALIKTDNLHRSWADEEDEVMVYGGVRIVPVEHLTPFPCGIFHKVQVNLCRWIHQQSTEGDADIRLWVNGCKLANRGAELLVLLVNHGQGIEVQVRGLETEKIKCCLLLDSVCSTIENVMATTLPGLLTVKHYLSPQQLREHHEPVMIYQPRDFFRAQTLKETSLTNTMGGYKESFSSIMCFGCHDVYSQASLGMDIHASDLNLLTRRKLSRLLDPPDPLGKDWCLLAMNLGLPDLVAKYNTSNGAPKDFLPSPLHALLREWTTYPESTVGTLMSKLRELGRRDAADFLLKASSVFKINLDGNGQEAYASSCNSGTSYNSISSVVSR
Sequence of MARK1(h) (Q9P0L2 whole entry): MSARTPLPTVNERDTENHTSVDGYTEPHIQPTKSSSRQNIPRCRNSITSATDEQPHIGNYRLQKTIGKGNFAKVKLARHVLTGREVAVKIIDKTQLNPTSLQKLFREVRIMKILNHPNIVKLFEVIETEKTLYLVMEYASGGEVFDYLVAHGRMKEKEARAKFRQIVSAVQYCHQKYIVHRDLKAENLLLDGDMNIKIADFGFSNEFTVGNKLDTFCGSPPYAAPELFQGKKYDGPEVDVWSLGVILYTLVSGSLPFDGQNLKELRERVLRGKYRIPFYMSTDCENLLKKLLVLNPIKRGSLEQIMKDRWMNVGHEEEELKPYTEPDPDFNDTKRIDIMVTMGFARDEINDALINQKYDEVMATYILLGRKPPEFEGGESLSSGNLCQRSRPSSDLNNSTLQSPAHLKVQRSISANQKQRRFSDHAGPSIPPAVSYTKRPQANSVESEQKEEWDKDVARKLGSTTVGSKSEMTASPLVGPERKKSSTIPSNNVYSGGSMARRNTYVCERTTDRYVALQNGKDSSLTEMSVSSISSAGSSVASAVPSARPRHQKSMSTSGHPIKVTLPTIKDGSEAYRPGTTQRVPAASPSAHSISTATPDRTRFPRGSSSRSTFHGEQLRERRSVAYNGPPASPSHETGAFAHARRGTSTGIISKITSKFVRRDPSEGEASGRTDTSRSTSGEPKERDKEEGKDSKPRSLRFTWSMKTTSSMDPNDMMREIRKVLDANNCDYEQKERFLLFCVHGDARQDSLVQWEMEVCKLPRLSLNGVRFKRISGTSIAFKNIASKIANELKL

| Structure (SMILES) | remaining activity at 2.5 µM (Abl(T315I)(h)) | remaining activity at 2.5 µM (CaMKIIβ(h)) | remaining activity at 2.5 µM (DAPK1(h)) | remaining activity at 2.5 µM (LOK(h)) | remaining activity at 2.5 µM (MARK1(h)) | remaining activity at 2.5 µM (MLK1(h)) | remaining activity at 2.5 µM (MRCKα(h)) | remaining activity at 2.5 µM (PKG1α(h)) | remaining activity at 2.5 µM (PhKγ2(h)) | remaining activity at 2.5 µM (Pim-2(h)) | remaining activity at 2.5 µM (STK33(h)) | remaining activity at 2.5 µM (TSSK1(h)) | remaining activity at 2.5 µM (JNK3(h)) | remaining activity at 2.5 µM (Lyn(h)) | inhibition of p70S6K (p70S6K(h)) | percent residual activity of p70S6K(h) (p70S6K(h)) |
| --- | --- | --- | --- | --- | --- | --- | --- | --- | --- | --- | --- | --- | --- | --- | --- | --- |
| CN1CCCC1CCNC(=O)c1cn2c3c(c(N4CCC(c5cnccn5)C4)c(F)cc3c1=O)Oc1cc3ccccc3cc1-2 (stereo not shown) [Compound A-1] | 52% | 101% | 40% | 88% | 83% | 85% | 85% | 57% | 46% | 77% | 90% | 98% | 97% | 110% | greater than 80% | 18% |
| CC(=O)N1CCN(c2ccc3c(=O)c(C(=O)NCCN4CCCC4)c4n(C)c5ccccc5n4c3n2)CC1 [Compound B-1] | 106% | 100% | 89% | 106% | 95% | 86% | 98% | 101% | 118% | 110% | 102% | 107% | 98% | 122% | – | 97% |
